Columns and labels:
Assay type in all cases: cell-based, human
[1] = system: HMGN1; assay: HMGN1 ELISA in culture medium of foreskin cells (Examples 10, 11; Tables 62, 63, 64); conditions: Homo sapiens, doxorubicin-treated foreskin cells, DMSO = 100; for activity at 30 µM: 30 μM test compound, read-out: HMGN1; for activity at 90 µM: 90 μM test compound
[2] = system: foreskin cells in which senescence was induced by doxorubicin; assay: CellTiter-Glo cell viability of doxorubicin-induced senescent foreskin cells (Examples 1-2, 10, 11, 13; Tables 4, 63, 65); conditions: Homo sapiens, 72 h, doxorubicin-induced senescent foreskin cells, CellTiter-Glo, 0 μM = 100, read-out: Survival (%); for viability at 1.1 µM: 1.1 μM test compound; for viability at […]: […] test compound; for viability at 10 µM: 10 μM test compound; for viability at 30 µM: 30 μM test compound; for viability at 90 µM: 90 μM test compound
Description: After 3 days, cell viability was measured using CellTiter-Glo Luminescent Cell Viability Assay (Promega) or light microscopy.

[3] = system: A549; assay: CellTiter-Glo cell viability of senescent A549 cancer cells (Example 12, Table 67); conditions: Homo sapiens, A549, doxorubicin-induced senescent A549 cancer cells, CellTiter-Glo, read-out: Survival (%); for viability at 1.1 µM: 1.1 μM test compound; for viability at 10 µM: 10 μM test compound; for viability at 30 µM: 30 μM test compound; for viability at 90 µM: 90 μM test compound
[4] = system: HMGN1; assay: HMGN1 ELISA in culture medium of A549 cancer cells (Example 12, Table 66); conditions: Homo sapiens, A549, doxorubicin-induced senescent A549 cells, ELISA, DMSO = 100, read-out: HMGN1 (amount of HMGN1 secreted in the cell culture); for activity at 30 µM: test compound 30 μM; for activity at 90 µM: test compound 90 μM

| SMILES | activity at 30 µM [1] | viability at 1.1 µM [2] | viability at […] [2] | viability at 1.1 µM [3] | viability at 10 µM [3] | activity at 30 µM [4] | activity at 90 µM [1] | viability at 10 µM [2] | viability at 30 µM [2] | viability at 90 µM [2] | viability at 30 µM [3] | viability at 90 µM [3] | activity at 90 µM [4] |
| --- | --- | --- | --- | --- | --- | --- | --- | --- | --- | --- | --- | --- | --- |
| CC1(C)CC[C@]2(c3nc(CO)no3)CC[C@]3(C)[C@H](C(=O)C=C4[C@@]5(C)C=C(C#N)C(=O)C(C)(C)[C@@H]5CC[C@]43C)[C@@H]2C1 [LX-2508] | 313% | 75.6% | 28.2% | 93.5% | 43.9% | 283% | – | – | – | – | – | – | – |
| C[C@@H]1C(=O)C(C#N)=C[C@]2(C)c3nc(CCO)n(-c4ccccc4)c3CC[C@@H]12 [LX-2409] | 239% | 37.1% | 12.8% | 88.5% | 26.4% | 281% | – | – | – | – | – | – | – |
| Cc1ccc(Nc2nccc(N(C)c3ccc4c(C)n(C)nc4c3)n2)cc1S(N)(=O)=O [LX-3301, Pazopanib, reference compound] | – | 100% | 99.2% | 100% | 85.9% | – | 228% | 67.4% | 39.5% | 2.7% | 51.9% | 4.2% | 229% |
| Cc1onc(C(=O)N2CCN(C(c3ccc(Cl)cc3)c3ccc(OCc4cn(CCOCCOCCOCCOCCNc5cccc6c5C(=O)N(C5CCC(=O)NC5=O)C6=O)nn4)cc3)CC2)c1[N+](=O)[O-] (stereo not shown) [LX-436, 4-((14-(4-((4-((4-chlorophenyl)(4-(5-methyl-4-nitroisooxazol-3-carbonyl)piperazin-1-yl)methyl)phenoxy)methyl)-1H-1,2,3-triazol-1-yl)-3,6,9,12-tetraoxatetradecyl)amino)-2-(2,6-dioxopiperidin-3-yl)isoindolin-1,3-dione] | 299% | 84.4% | 3.8% | 99.5% | – | 278% | – | – | – | – | – | – | – |
| CC1(C)CC[C@]2(C(=O)O)CC[C@]3(C)C(=CC[C@@H]4[C@@]5(C)CC[C@H](O)C(C)(C)[C@@H]5CC[C@]43C)[C@@H]2C1 [LX-2003, Oleanolic acid] | 298% | 89.6% | 65.8% | 97.5% | 90.6% | – | – | 34.6% | 14% | – | 52.7% | 18.3% | 218% |
| C[C@@H]1[C@H]2[C@H]3C(=O)C=C4[C@@]5(C)C=C(C#N)C(=O)C(C)(C)[C@@H]5CC[C@@]4(C)[C@]3(C)CC[C@@]2(c2nc(CCO)no2)CC[C@H]1C [LX-2511] | 306% | 43.5% | 8.4% | 97.2% | 2.1% | 296% | – | – | – | – | – | – | – |
| CCn1c2ccc(CNC)cc2c2ccc(-c3cnoc3)cc21 [LX-903] | 324% | 104% | 89.8% | 98.9% | 81.6% | – | – | 73.2% | 5.7% | – | 42.7% | 12.3% | 239% |
| CCCCC/C=C\C/C=C\C/C=C\CCCCCCC(=O)O [LX-2705, Dihomogamma-linolenic acid] | – | 102% | 102% | 101% | 96.8% | – | 202% | 72.1% | 45.5% | 31.7% | 100% | 61.2% | 160% |
| Cc1oncc1C(=O)Nc1ccc(C(F)(F)F)cc1 [LX-1603, Leflunomide, reference compound] | – | 101% | 95.6% | 99.6% | 95.7% | – | 168% | 91.1% | 84.3% | 48.3% | 96.5% | 49.8% | 163% |
| O=S(=O)(NC1CCCCC1)c1ccc2c(c1)C(=NO)c1cc(S(=O)(=O)NC3CCCCC3)ccc1-2 [LX-602] | 248% | 79% | 55.2% | 102% | 99% | 248% | – | 25.9% | 16.1% | – | 41.8% | 2.7% | – |
| CO[C@]1(C(=O)N[C@@H](C)c2ccc(-n3cc(F)cn3)nc2)CC[C@H](c2nc(C)cc(Nc3cc(C)[nH]n3)n2)CC1 [LX-1902, Pralsetinib, reference compound] | 303% | 59% | 39.6% | 66.2% | 4.2% | 271% | – | 11.9% | 3.9% | – | – | – | – |
| CC(=O)N[C@@H](Cc1c[nH]c2ccccc12)C(=O)N[C@@H](CCC(=O)C=[N+]=[N-])C(=O)OC(C)C [LX-3201, Sirpiglenastat, reference compound] | 286% | 99.3% | 91.9% | 96.5% | 68.1% | 309% | – | 20.1% | – | – | 12.8% | – | – |
| Cc1ccc(C(=O)C(C)CN2CCCCC2)cc1 (stereo not shown) [LX-1403, Tolperisone, reference compound] | 282% | 102% | 97.6% | 97.6% | 70% | 306% | – | 55.4% | 18.3% | – | 8.4% | – | – |
| COC(=O)[C@]12CCC(C)(C)C[C@H]1[C@H]1C(=O)C=C3[C@@]4(C)C=C(C#N)C(=O)[C@@H](C)[C@@H]4CC[C@@]3(C)[C@]1(C)CC2 [LX-2316] | 274% | 36.6% | 0.9% | 106% | 25.4% | 263% | – | – | – | – | – | – | – |
| COC(=O)[C@]12CCC(C)(C)C[C@H]1[C@H]1C(=O)C[C@@H]3[C@@]4(C)C=C(C#N)C(=O)C(C)(C)[C@@H]4CC[C@@]3(C)[C@]1(C)CC2 [LX-2301] | 283% | 2.6% | – | 21.5% | – | 274% | – | – | – | – | – | – | – |
| Cc1[nH]nc(C(F)(F)F)c1Cc1sc2c(c1C(=O)N1C[C@](C)(O)CO1)c(=O)n(C)c(=O)n2C(C)C [LX-3203] | 315% | 107% | 15.4% | 105% | 21.6% | 293% | – | – | – | – | – | – | – |
| Cn1cc(-c2ccccc2)c(-n2cccc2)n1 [LX-907] | 297% | 98.8% | 95.1% | 90.1% | 78.5% | – | – | 62.8% | 9.7% | – | 53.7% | 5.9% | 264% |
| C=CC(=O)NC[C@]12CCC(C)(C)C[C@H]1[C@H]1C(=O)C=C3[C@@]4(C)C=C(C#N)C(=O)C(C)(C)[C@@H]4CC[C@@]3(C)[C@]1(C)CC2 [LX-2509] | 301% | 81.1% | 13.5% | 106% | 21.8% | 305% | – | – | – | – | – | – | – |
| CN(C)CCCN1c2ccccc2CCc2ccc(Cl)cc21 [LX-3101, Clomipramine, reference compound] | 284% | 93.3% | 75.8% | 89.2% | 7.1% | 334% | – | 11.7% | – | – | – | – | – |
| C[C@H]1Cc2c([nH]c3ccccc23)[C@H](c2ccc([Si](C)(C)C)cc2)N1C(=O)CCl [LX-412] | 293% | 0.3% | – | 4.8% | – | 327% | – | – | – | – | – | – | – |
| C[C@@H]1CC[C@H]2[C@@H](C)C(=O)O[C@@H]3O[C@@]4(C)CC[C@@H]1[C@]32OO4 [LX-506, Artemisinin, reference compound] | – | 101% | 97.2% | 109% | 93.8% | – | 169% | 91% | 78% | 33.2% | 91.4% | 44.2% | 169% |
| C#CC(=O)N1[C@@H](CCCC)Cc2c([nH]c3ncccc23)[C@@H]1c1ccc(F)cc1 [LX-419] | 274% | 10.3% | – | 25.1% | – | 313% | – | – | – | – | – | – | – |
